From patent publication US20070049593A1 (priority 2004, published 2007)
Structures can show the parent of a compound that is named as a salt. Where two headings read alike, the source gives them in different places.

Molecular target: T1, HCV polymerase (Hepatitis C virus genotype 1b, UniProt P26663)
T1 construct: a region encoding NS5B (J Virol 1991 March, 65(3), 1105-13, 544 amino acids after deletion of 47 amino acids on the C-terminal); 6xHis (C); made in house; host or cells: Escherichia coli
T1 sequence (P26663 2420-2963): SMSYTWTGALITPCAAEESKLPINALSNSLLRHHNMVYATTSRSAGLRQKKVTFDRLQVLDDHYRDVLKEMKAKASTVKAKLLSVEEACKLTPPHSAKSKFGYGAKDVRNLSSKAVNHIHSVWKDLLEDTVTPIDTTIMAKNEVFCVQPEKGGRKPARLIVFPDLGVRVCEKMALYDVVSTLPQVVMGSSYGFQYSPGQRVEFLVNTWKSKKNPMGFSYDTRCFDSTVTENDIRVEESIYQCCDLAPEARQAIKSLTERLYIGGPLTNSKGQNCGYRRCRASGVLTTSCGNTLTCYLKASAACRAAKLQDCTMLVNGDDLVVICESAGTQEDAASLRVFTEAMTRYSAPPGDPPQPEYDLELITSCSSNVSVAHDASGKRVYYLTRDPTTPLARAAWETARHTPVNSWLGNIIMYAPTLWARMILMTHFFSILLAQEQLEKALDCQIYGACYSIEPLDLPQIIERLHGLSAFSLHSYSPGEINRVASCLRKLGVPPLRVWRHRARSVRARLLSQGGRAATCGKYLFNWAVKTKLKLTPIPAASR
Test: biochemical
Design: species or system HCV BK strain
Summary of the method: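 His-tagged NS5B (BK strain, 47-aa C-terminal deletion, E. coli-expressed) at 0.5 μg/ml copied 5 μg/ml run-off RNA bearing the HCV 3′ UTR with 2 μM UTP plus [3H]UTP, 50 μM ATP/GTP, in pH 7.5 Tris with 5 mM MgCl2, 25 °C, 90 min. TCA-precipitated RNA was counted and IC50 calculated.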

| SMILES | IC50 | IC50 (25° C., 90 min, [5,6-3H]UTP incorporation into RNA, read-out: HCV polymerase inhibitory activity IC50) |
| --- | --- | --- |
| CCN(CCC1CCN(C(C)=O)CC1)c1cccc2c1OCCn1c-2c(C2CCCCC2)c2ccc(C(=O)O)cc21 [Example 2-232, 4-{N-[2-(1-acetylpiperidin-4-yl)ethyl]-N-ethylamino)-12-cyclohexyl-6,7-dihydro-5-oxa-7a-azadibenzo[a,e]azulene-9-carboxylic acid] | < 100 nM | – |
| CC(=O)N1CCC(CCN(C(C)=O)c2cccc3c2OCCn2c-3c(C3CCCCC3)c3ccc(C(=O)O)cc32)CC1 [Example 2-233, 4-(N-acetyl-N-[2-(1-acetylpiperidin-4-yl)ethyl]amino}-12-cyclohexyl-6,7-dihydro-5-oxa-7a-azadibenzo[a,e]azulene-9-carboxylic acid] | < 100 nM | – |
| CC(C)(CN1CCC(O)CC1)NC(=O)c1ccc2c(C3CCCCC3)c3n(c2c1)CCOc1ccccc1-3 [Example 2-234, N-[2-(4-hydroxypiperidin-1-yl)-1,1-dimethylethyl]-12-cyclohexyl-6,7-dihydro-5-oxa-7a-azadibenzo[a,e]azulene-9-carboxamide] | 100 to 1000 nM | – |
| COC(=O)c1nc(C(C)(C)NC(=O)c2ccc3c(C4CCCCC4)c4n(c3c2)CCOc2ccccc2-4)oc1C [Example 2-235, methyl 2-{1-[(12-cyclohexyl-6,7-dihydro-5-oxa-7a-azadibenzo[a,e]azulene-9-carbonyl)amino]-1-methylethyl}-5-methyloxazole-4-carboxylate] | < 100 nM | – |
| Cc1oc(C(C)(C)NC(=O)c2ccc3c(C4CCCCC4)c4n(c3c2)CCOc2ccccc2-4)nc1C(=O)O [Example 2-236, 2-{1-[(12-cyclohexyl-6,7-dihydro-5-oxa-7a-azadibenzo[a,e]azulene-9-carbonyl)amino]-1-methylethyl}-5-methyloxazole-4-carboxylic acid] | < 100 nM | – |
| COc1ccc(C[C@H](NC(=O)c2ccc3c(C4CCCCC4)c4n(c3c2)CCOc2ccccc2-4)C(=O)O)cc1 [Example 2-237, (S)-2-[(12-cyclohexyl-6,7-dihydro-5-oxa-7a-azadibenzo[a,e]azulene-9-carbonyl)amino]-3-(4-methoxyphenyl)propionic acid] | < 100 nM | – |
| COC(=O)[C@@H](Cc1ccc(O)cc1)NC(=O)c1ccc2c(C3CCCCC3)c3n(c2c1)CCOc1ccccc1-3 [Example 2-238, methyl (R)-2-[(12-cyclohexyl-6,7-dihydro-5-oxa-7a-azadibenzo[a,e]azulene-9-carbonyl)amino]-3-(4-hydroxyphenyl)propionate] | < 100 nM | – |
| CC(C)(CN[C@H]1CC[C@H](O)CC1)NC(=O)c1ccc2c(C3CCCCC3)c3n(c2c1)CCOc1ccccc1-3 [Example 2-239, N-[2-(trans-4-hydroxycyclohexylamino)-1,1-dimethylethyl]-12-cyclohexyl-6,7-dihydro-5-oxa-7a-azadibenzo[a,e]azulene-9-carboxamide] | 100 to 1000 nM | – |
| CC(C)(NC(=O)c1ccc2c(C3CCCCC3)c3n(c2c1)CCOc1ccccc1-3)C(=O)N1CCCC(O)C1 (stereo not drawn) [Example 2-240, N-[2-(3-hydroxypiperidin-1-yl)-1,1-dimethyl-2-oxoethyl]-12-cyclohexyl-6,7-dihydro-5-oxa-7a-azadibenzo[a,e]azulene-9-carboxamide] | < 100 nM | – |
| CC(C)(NC(=O)c1ccc2c(C3CCCCC3)c3n(c2c1)CCOc1ccccc1-3)c1ccc(OCC(=O)O)cc1 [Example 2-241, (4-{1-[(12-cyclohexyl-6,7-dihydro-5-oxa-7a-azadibenzo[a,e]azulene-9-carbonyl)amino]-1-methylethyl}phenoxy)acetic acid] | < 100 nM | – |
| CC(C)(NC(=O)c1ccc2c(C3CCCCC3)c3n(c2c1)CCOc1ccccc1-3)C(=O)N1CCC(CO)CC1 [Example 2-242, N-[2-(4-hydroxymethylpiperidin-1-yl)-1,1-dimethyl-2-oxoethyl]-12-cyclohexyl-6,7-dihydro-5-oxa-7a-azadibenzo[a,e]azulene-9-carboxamide] | < 100 nM | – |
| CCN1CCC(CCN(CC)c2cccc3c2OCCn2c-3c(C3CCCCC3)c3ccc(C(=O)O)cc32)CC1 [Example 2-243, 12-cyclohexyl-4-{N-ethyl-N-[2-(1-ethylpiperidin-4-yl)ethyl]amino}-6,7-dihydro-5-oxa-7a-azadibenzo[a,e]azulene-9-carboxylic acid dihydrochloride] | < 100 nM | – |
| CC(C)(CN1CCN(CCO)CC1)NC(=O)c1ccc2c(C3CCCCC3)c3n(c2c1)CCOc1ccccc1-3 [Example 2-244, N-{2-[4-(2-hydroxyethyl)piperazin-1-yl]-1,1-dimethylethyl}-12-cyclohexyl-6,7-dihydro-5-oxa-7a-azadibenzo[a,e]azulene-9-carboxamide] | 100 to 1000 nM | – |
| CNC(=O)[C@H](Cc1ccc(O)cc1)NC(=O)c1ccc2c(C3CCCCC3)c3n(c2c1)CCOc1ccccc1-3 [Example 2-245, [(S)-2-(4-hydroxyphenyl)-1-(methylcarbamoyl)ethyl]-12-cyclohexyl-6,7-dihydro-5-oxa-7a-azadibenzo[a,e]azulene-9-carboxamide] | – | < 100 nM |
| O=C(N[C@H](Cc1ccc(O)cc1)C(=O)O)c1ccc2c(C3CCCCC3)c3n(c2c1)CCOc1ccccc1-3 [Example 2-246, (R)-2-[(12-cyclohexyl-6,7-dihydro-5-oxa-7a-azadibenzo[a,e]azulene-9-carbonyl)amino]-3-(4-hydroxyphenyl)propionic acid] | < 100 nM | – |
| O=C(O)CN1CCC(NC(=O)c2ccc3c(C4CCCCC4)c4n(c3c2)CCOc2ccccc2-4)(c2nc3ccccc3[nH]2)CC1 [Example 2-247, {4-(1H-benzimidazol-2-yl)-4-[(12-cyclohexyl-6,7-dihydro-5-oxa-7a-azadibenzo[a,e]azulene-9-carbonyl)amino]piperidin-1-yl}acetic acid] | < 100 nM | – |
| COC(=O)CN1CCC(NC(=O)c2ccc3c(C4CCCCC4)c4n(c3c2)CCOc2ccccc2-4)(c2nc3ccccc3[nH]2)CC1 [Example 2-248, methyl (4-(1H-benzimidazol-2-yl)-4-[(12-cyclohexyl-6,7-dihydro-5-oxa-7a-azadibenzo[a,e]azulene-9-carbonyl)amino]piperidin-1-yl]acetate monohydrochloride] | < 100 nM | – |
| Cn1c(CNC(=O)c2ccc3c(C4CCCCC4)c4n(c3c2)CCOc2ccccc2-4)nc2ccccc21 [Example 2-249, N-(1-methyl-1H-benzimidazol-2-ylmethyl)-12-cyclohexyl-6,7-dihydro-5-oxa-7a-azadibenzo[a,e]azulene-9-carboxamide] | < 100 nM | – |
| O=C(O)Cn1c(CNC(=O)c2ccc3c(C4CCCCC4)c4n(c3c2)CCOc2ccccc2-4)nc2ccccc21 [Example 2-250, (2-{[(12-cyclohexyl-6,7-dihydro-5-oxa-7a-azadibenzo[a,e]azulene-9-carbonyl)amino]methyl}benzimidazol-1-yl)acetic acid] | < 100 nM | – |
| COC(=O)Cn1c(CNC(=O)c2ccc3c(C4CCCCC4)c4n(c3c2)CCOc2ccccc2-4)nc2ccccc21 [Example 2-251, methyl (2-{[(12-cyclohexyl-6,7-dihydro-5-oxa-7a-azadibenzo[a,e]azulene-9-carbonyl)amino]methyl}benzimidazol-1-yl)acetate] | < 100 nM | – |
| O=C(NCc1nc2ccccc2[nH]1)c1ccc2c(C3CCCCC3)c3n(c2c1)CCOc1ccccc1-3 [Example 2-252, N-(1H-benzimidazol-2-ylmethyl)-12-cyclohexyl-6,7-dihydro-5-oxa-7a-azadibenzo[a,e]azulene-9-carboxamide] | < 100 nM | – |
